Key:
[1] = tested on: bedstraw; test: Test B pre/postemergence bedstraw; assay type: in vivo, Galium aparine
Outline: (§1)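 Response is a visual 0-to-10 score relative to untreated plants, where 0 means no effect and 10 means complete control, taken twelve to sixteen days after application. Treatments went onto soil at planting and onto foliage of 1- to 4-leaf plants, using a surfactant-containing non-phytotoxic solvent.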

[2] = tested on: blackgrass; test: Test B pre/postemergence blackgrass; assay type: in vivo, Alopecurus myosuroides
Outline: as §1

[3] = tested on: surinam grass; test: Test B pre/postemergence surinam grass; assay type: in vivo, Brachiaria decumbens
Outline: as §1

[4] = tested on: cocklebur; test: Test B pre/postemergence cocklebur; assay type: in vivo, Xanthium strumarium
Outline: as §1

[5] = tested on: corn; test: Test B pre/postemergence corn; assay type: in vivo, Zea mays
Outline: as §1

[6] = tested on: giant foxtail; test: Test B pre/postemergence giant foxtail; assay type: in vivo, Setaria faberii
Outline: as §1

[7] = tested on: morningglory; test: Test B pre/postemergence morningglory; assay type: in vivo, Ipomoea hederacea
Outline: as §1

[8] = tested on: pigweed; test: Test B pre/postemergence pigweed; assay type: in vivo, Amaranthus retroflexus
Outline: as §1

[9] = tested on: rape; test: Test B pre/postemergence rape; assay type: in vivo, Brassica napus
Outline: as §1

[10] = tested on: soybean; test: Test B pre/postemergence soybean; assay type: in vivo, Glycine max
Outline: as §1

[11] = tested on: sugar beet; test: Test B pre/postemergence sugar beet; assay type: in vivo, Beta vulgaris
Outline: as §1

[12] = tested on: velvetleaf; test: Test B pre/postemergence velvetleaf; assay type: in vivo, Abutilon theophrasti
Outline: as §1

[13] = tested on: wheat; test: Test B pre/postemergence wheat; assay type: in vivo, Triticum aestivum
Outline: as §1

[14] = tested on: wild oat; test: Test B pre/postemergence wild oat; assay type: in vivo, Avena fatua
Outline: as §1

[15] = tested on: rice; test: Test B flood test rice; assay type: in vivo, Oryza sativa
Outline: (§2)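 Flood test on plants grown to the 2-leaf stage; treated plants kept in greenhouse twelve to sixteen days, then visually rated against controls on a 0 (no effect) to 10 (complete control) scale.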

[16] = tested on: smallflower flatsedge; test: Test B flood test smallflower flatsedge; assay type: in vivo, Cyperus difformis
Outline: as §2

[17] = Preemergence, Rate 62 g/ha, scale of 0 to 10 where 0 is no effect and 10 is complete control
[18] = Preemergence, Rate 250 g/ha, scale of 0 to 10 where 0 is no effect and 10 is complete control
[19] = Preemergence, Rate 500 g/ha, scale of 0 to 10 where 0 is no effect and 10 is complete control
[20] = Rate 62 g/ha, Postemergence, scale of 0 to 10 where 0 is no effect and 10 is complete control
[21] = Rate 125 g/ha, Postemergence, scale 0 to 10
[22] = Rate 125 g/ha, Preemergence, scale of 0 to 10 where 0 is no effect and 10 is complete control
[23] = Rate 500 g/ha, Postemergence, scale 0 to 10, 0 no effect, 10 complete control
[24] = Rate 62 g/ha, headed Pre-emergence (flood test species), scale 0 to 10 (0 no effect, 10 complete control)
[25] = Rate 125 g/ha, Pre-emergence, flood test species, scale 0 to 10 where 0 is no effect and 10 is complete control
[26] = Rate 250 g/ha, Pre-emergence, flood-test species, scale 0 to 10, 0 is no effect, 10 is complete control
[27] = Rate 500 g/ha, Pre-emergence, flood test species, scale 0 to 10 (0 no effect, 10 complete control)

Cc1ccccc1-n1c(=O)on(C(=O)N(c2ccc(N(C)C)cc2)C(C)C)c1=O [Compound 237]
0: Bedstraw plant response rating [1, 17] | Bedstraw plant response rating [1, 18] | Plant response rating, Bedstraw [1, 19] | Bedstraw plant response rating [1, 20] | Bedstraw plant response rating [1, 21] | Bedstraw plant response rating [1, 22] | Blackgrass plant response rating [2, 17] | Blackgrass plant response rating [2, 18] | Plant response rating, Blackgrass [2, 19] | Blackgrass plant response rating [2, 20] | Blackgrass plant response rating [2, 21] | Blackgrass plant response rating [2, 22] | Plant response rating (0 to 10; 0 is no effect, 10 is complete control), Blackgrass ([2]; Rate 250 g/ha, Postemergence) | Blackgrass plant response rating [2, 23] | B. signalgrass plant response rating [3, 17] | B. signalgrass plant response rating ([3]; Preemergence, Rate 250 g/ha, scale 0 to 10, 0 is no effect, 10 is complete control) | Plant response rating, B. signalgrass [3, 19] | B. signalgrass plant response rating [3, 20] | B. signalgrass plant response rating ([3]; Rate 125 g/ha, Postemergence, scale 0 (no effect) to 10 (complete control)) | B. signalgrass plant response rating [3, 22] | Plant response rating (0 to 10; 0 is no effect, 10 is complete control), B. signalgrass ([3]; Rate 250 g/ha, Postemergence) | B. signalgrass plant response rating [3, 23] | Cocklebur plant response rating [4, 17] | Cocklebur plant response rating [4, 18] | Plant response rating, Cocklebur [4, 19] | Cocklebur plant response rating [4, 20] | Cocklebur plant response rating [4, 21] | Cocklebur plant response rating [4, 22] | Plant response rating (0 to 10; 0 is no effect, 10 is complete control), Cocklebur ([4]; Rate 250 g/ha, Postemergence) | Cocklebur plant response rating [4, 23] | Corn plant response rating [5, 17] | Corn plant response rating [5, 18] | Plant response rating, Corn [5, 19] | Corn plant response rating [5, 20] | Corn plant response rating [5, 21] | Corn plant response rating [5, 22] | Plant response rating (0 to 10; 0 is no effect, 10 is complete control), Corn ([5]; Rate 250 g/ha, Postemergence) | Corn plant response rating [5, 23] | Giant foxtail plant response rating [6, 17] | Giant foxtail plant response rating [6, 20] | Giant foxtail plant response rating [6, 21] | Giant foxtail plant response rating [6, 22] | Plant response rating (0 to 10; 0 is no effect, 10 is complete control), Giant foxtail ([6]; Rate 250 g/ha, Postemergence) | Giant foxtail plant response rating [6, 23] | Morningglory plant response rating [7, 17] | Morningglory plant response rating [7, 18] | Morningglory plant response rating [7, 22] | Redroot pigweed plant response rating [8, 17] | Redroot pigweed plant response rating [8, 18] | Plant response rating, Redroot pigweed [8, 19] | Redroot pigweed plant response rating [8, 20] | Redroot pigweed plant response rating [8, 21] | Redroot pigweed plant response rating [8, 22] | Rape plant response rating [9, 17] | Rape plant response rating [9, 18] | Plant response rating, Rape [9, 19] | Rape plant response rating [9, 20] | Rape plant response rating [9, 21] | Rape plant response rating [9, 22] | Plant response rating (0 to 10; 0 is no effect, 10 is complete control), Rape ([9]; Rate 250 g/ha, Postemergence) | Rape plant response rating [9, 23] | Soybean plant response rating [10, 17] | Soybean plant response rating [10, 18] | Plant response rating, Soybean [10, 19] | Soybean plant response rating [10, 20] | Soybean plant response rating [10, 22] | Sugarbeets plant response rating [11, 17] | Sugarbeets plant response rating [11, 18] | Plant response rating, Sugarbeets [11, 19] | Sugarbeets plant response rating [11, 20] | Sugarbeets plant response rating [11, 21] | Sugarbeets plant response rating [11, 22] | Plant response rating (0 to 10; 0 is no effect, 10 is complete control), Sugarbeets ([11]; Rate 250 g/ha, Postemergence) | Sugarbeets plant response rating [11, 23] | Velvetleaf plant response rating [12, 17] | Velvetleaf plant response rating [12, 18] | Plant response rating, Velvetleaf [12, 19] | Velvetleaf plant response rating [12, 20] | Velvetleaf plant response rating [12, 21] | Velvetleaf plant response rating [12, 22] | Plant response rating (0 to 10; 0 is no effect, 10 is complete control), Velvetleaf ([12]; Rate 250 g/ha, Postemergence) | Wheat plant response rating [13, 17] | Wheat plant response rating [13, 18] | Plant response rating, Wheat [13, 19] | Wheat plant response rating [13, 20] | Wheat plant response rating [13, 21] | Wheat plant response rating [13, 22] | Plant response rating (0 to 10; 0 is no effect, 10 is complete control), Wheat ([13]; Rate 250 g/ha, Postemergence) | Wheat plant response rating [13, 23] | Wild oats plant response rating [14, 17] | Wild oats plant response rating [14, 18] | Plant response rating, Wild oats [14, 19] | Wild oats plant response rating [14, 20] | Wild oats plant response rating [14, 21] | Wild oats plant response rating [14, 22] | Plant response rating (0 to 10; 0 is no effect, 10 is complete control), Wild oats ([14]; Rate 250 g/ha, Postemergence) | Wild oats plant response rating [14, 23] | Rice plant response rating [15, 24] | Rice plant response rating [15, 25] | Rice plant response rating [15, 26] | Rice plant response rating [15, 27] | S. Flatsedge plant response rating [16, 24] | S. Flatsedge plant response rating [16, 25] | S. Flatsedge plant response rating [16, 26] | S. Flatsedge plant response rating [16, 27]
6: Morningglory plant response rating [7, 23]
1: Soybean plant response rating [10, 21] | Plant response rating (0 to 10; 0 is no effect, 10 is complete control), Soybean ([10]; Rate 250 g/ha, Postemergence) | Soybean plant response rating [10, 23]
2: Plant response rating (0 to 10; 0 is no effect, 10 is complete control), Bedstraw ([1]; Rate 250 g/ha, Postemergence) | Plant response rating, Morningglory [7, 19] | Morningglory plant response rating [7, 20] | Morningglory plant response rating [7, 21] | Plant response rating (0 to 10; 0 is no effect, 10 is complete control), Redroot pigweed ([8]; Rate 250 g/ha, Postemergence) | Velvetleaf plant response rating [12, 23]
3: Bedstraw plant response rating [1, 23] | Plant response rating (0 to 10; 0 is no effect, 10 is complete control), Morningglory ([7]; Rate 250 g/ha, Postemergence) | Redroot pigweed plant response rating [8, 23]
4: Giant foxtail plant response rating [6, 18] | Plant response rating, Giant foxtail [6, 19]

Source: US6737383B1, “Herbicidal oxadiazolidines” (priority 1999, dated 2004)
